Source: patent publication US20250035641A1, “COMPOSITIONS AND METHODS RELATED TO PROTEIN LABELING” (The Chinese University of Hong Kong, priority 2023, published 2025)

Experiments:
Format in all cases: cell-based
HTN-EZH2 = test: O-GlcNAc inducing effects on HTN-EZH2; conditions: HTN-EZH2:fOGT=1:0.01
Source text: FIG. 13: Evaluation of O-GlcNAc inducing effects of OGTAC-1/2/3 on HTN-EZH2 and dose-dependent effect of OGTAC-1 on HTN-EZH2. In the treatment group, transfection ratio is HTN-EZH2:fOGT:=1:0.01.
As there are >20,000 commercially available plasmids for HaloTag-fused human proteins,46 OGTACs can be rapidly tested in a wide range of POIs, enabling time- and dose-dependent manipulation of their specific O-GlcNAcylation level.

HTN-BRD4 and 0tfOGT = target: T1, HTN-BRD4 and 0tfOGT (Homo sapiens, UniProt O60885+P62942, F37V); test: Washout / reversibility study, HTN-BRD4:0tfOGT; conditions: 500 nM 4 h pretreatment, then fresh media
T1 construct: HaloTag fragment; 0TPR(463-1046)-; expressed in transfected cells; host or cells: HEK293T
Description: (§1) FIGS. 7A-7E: Specificity and reversibility of OGTAC strategy. […] (B), Constructs of fOGT with 13.5 (rounded to 13) TPR and 0TPR-fOGT (0tfOGT). (C). […] (D), Dose-dependent O-GlcNAcylation profile of HTN-BRD4 by OGTAC-4 treatment. HEK293T cells expressing HTN-BRD4:0tfOGT=1:0.05 were treated with an increasing concentration of OGTAC-4 for 4 h. Then, the O-GlcNAcylation level of HTN-BRD4 was assessed by immunoblot after IP using BRD4 antibody. All quantifications are shown as mean±s.e.m. of n=3 biologically independent experiments. (E), Reversible effect of OGTAC-4 on HTN-BRD4 can be achieved by addition of AP1867. HEK293T cells expressing HTN-BRD4:0tfOGT=1:0.05 were pretreated with OGTAC-4 (500 nM) or DMSO for 4 h, and culturing media were replaced by fresh media with DMSO or AP1867 (50 μM) for the indicated time. The quantifications in right panel were conducted by the normalizing the fold-change (OGTAC-4/DMSO) for each post-washout time point to the value of 4 h pre-treatment. All quantifications are shown as mean±s.e.m. of 3 independent biological repeats. Statistical significance was calculated with ordinary one-way ANOVA comparing samples with different transfection conditions or OGTAC-treatment. ns, p≥0.05; *p<0.05; **p<0.01; ***p<0.001; ****p<0.0001.
To assess the potential application of our OGTAC strategy in downstream biological studies, we investigated the reversibility of OGTACs. […] Additionally. the O-GlcNAc level of BRD4 returned to baseline after 6 hours of AP1867 treatment, confirming the reversibility of the induction effect (FIG. 7E).
For each IP reaction, 2.2×10^6 HEK293T cells were seed in 10 cm dish. After cells attached, transfection reagents and plasmids were prepared and added in DMEM. After 24 h transfection, media were replaced by fresh warm complete media with DMSO or probes. For washout study, after 4 h treatment, media with DMSO or OGTAC-4 (500 nM) were replaced by fresh media with DMSO or AP1867 (50 μM) for further incubation. After certain time of OGTACs treatment, cells were collected by cold PBS and lysed by 200 μL complete IP lysis buffer. […]

HTN-BRD4 = target: T2, HTN-BRD4 (Homo sapiens, UniProt O60885+P62942, F37V); test: IP-WB of HTN-BRD4 O-GlcNAcylation with truncated 0tfOGT; conditions: 0tfOGT:HTN-BRD4 system, 4 h
T2 construct: HaloTag fragment; expressed in transfected cells; host or cells: HEK293T
Description: as §1
We next applied OGTAC-4 to the 0tfOGT:HTN-BRD4 system, resulting in an 5-fold increase in O-GlcNAc level on BRD4. […]

T2 sequence (P62942 whole entry F37V, stated change not applied, other chains not shown, the tested form may be a part): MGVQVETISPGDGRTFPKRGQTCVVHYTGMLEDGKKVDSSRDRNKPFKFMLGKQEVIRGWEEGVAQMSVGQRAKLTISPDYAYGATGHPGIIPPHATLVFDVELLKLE
T1 sequence (P62942 whole entry F37V, stated change not applied, other chains not shown, the tested form may be a part): as above

| O-GlcNAc induction and ternary complex formation after washout (HTN-BRD4 and 0tfOGT) | fold increase in O-GlcNAc level on BRD4 (HTN-BRD4) [fold] | SMILES | O-GlcNAcylation-inducing effect on HTN-EZH2 (HTN-EZH2) |
| --- | --- | --- | --- |
|  |  | CC[C@H](C(=O)N1CCCC[C@H]1C(=O)O[C@H](CCc1ccc(OC)c(OC)c1)c1cccc(OCC(=O)NCCOCCOCCCCCCCl)c1)c1cc(OC)c(OC)c(OC)c1 [OGTAC-1, (R)-1-(3-(2-((2-(2-((6-chlorohexyl)oxy)ethoxy)ethyl)amino)-2-oxoethoxy)phenyl)-3-(3,4-dimethoxyphenyl)propyl (S)-1-((S)-2-(3,4,5-trimethoxyphenyl)butanoyl) piperidine-2-carboxylate] | highest O-GlcNAcylation-inducing effects among the three OGTACs |
| persisted post-washout | 5 | CC[C@H](C(=O)N1CCCC[C@H]1C(=O)O[C@H](CCc1ccc(OC)c(OC)c1)c1cccc(OCC(=O)NCCCCCCNC(=O)C[C@@H]2N=C(c3ccc(Cl)cc3)c3c(sc(C)c3C)-n3c(C)nnc32)c1)c1cc(OC)c(OC)c(OC)c1 [OGTAC-4, (R)-1-(3-(2-((6-(2-((S)-4-(4-chlorophenyl)-2,3,9-trimethyl-6H-thieno[3,2-f[]8 1,2,4]triazolo[4,3-a][1,4]diazepin-6-yl)acetamido)hexyl)amino)-2-oxoethoxy)phenyl)-3-(3,4-dimethoxyphenyl)propyl (S)-1-((S)-2-(3,4,5-trimethoxyphenyl)butanoyl)piperidine-2-carboxylate] |  |
